Assay results published in patent US8518876B2, “Composition for long-acting peptide analogs” (Pharmaln Corporation, priority 2007, dated 2013).
Where a SMILES comes first, the peptide text is derived from it. Bridges are numbered along the chain shown (N, C = ends). [ ]: non-standard residue; d: D form. The star is where a group is joined. ξ: configuration not given here. Lauroyl = CCCCCCCCCCCC(=O)*; Octanoyl = CCCCCCCC(=O)*; ξLac = CC(O)C(=O)O

Legend:
rat ear model = assay: Rat ear model, maintenance of vasoconstriction (paleness of ears) after subcutaneous injection; format: in vivo; details: for loss of paleness after: subcutaneous injection, ears examined after 6 and 24 h
Experimental: Using a rat ear model, a vasopressin analog with metal binding moiety of the present invention, His6Ter (“His6” disclosed as SEQ ID NO: 52), was evaluated for it ability to maintain vasoconstriction for an extended period of time. The analog was formulated at a 2% load in polymeric carrier containing 40PLPEG537-Zn-chelate. The peptide analog-polymeric complex was injected subcutaneously into the back of one set of rats, while terlipressin alone was also injected similarly in another set of rats. The ears were examined at baseline and at intervals up to 48 h.
Using the same model, the effects of delayed release of biologically-active lysine vasopressin from the peptide analog His6Ter (“His6” disclosed as SEQ ID NO: 52), with or without complexing in polymeric carrier, was tested. In the experiment, terlipressin was conjugated with a his tag metal binding moiety to result in the His6Ter peptide analog (“His6” disclosed as SEQ ID NO: 52). A portion of the His6Ter analog (“His6” disclosed as SEQ ID NO: 52) was formulated at 2% loading in 40PLPEG537-Zn-chelate. The three test materials were injected subcutaneously into groups of rats and the ears were examined after 6 and 24 h.

[1] = Solubility in water of the synthesized peptide; format: physicochemical; details: in words
[2] = cited from earlier work
[3] = system: human umbilical chord artery endothelial cells (HUAEC); assay: Ca-influx after vasopressin analog stimulation of HUAEC, samples pre-incubated in human serum; format: cell-based; set-up: key to Activity of Various Vasopressin Analogs, 0 h / Activity of Various Vasopressin Analogs, 1 h / Activity of Various Vasopressin Analogs, 2 h / Activity of Various Vasopressin Analogs, 4 h: “−” for no detectable activity; “+” to “+++” for slight to high activity; “+” to “+++” for slight to high activity; “+” to “+++” for slight to high activity; details: for Activity of Various Vasopressin Analogs, 0 h: 0 h pre-incubation in pooled human serum at 37° C. (serum present); for Activity of Various Vasopressin Analogs, 0 h / Activity of Various Vasopressin Analogs, 1 h / Activity of Various Vasopressin Analogs, 2 h / Activity of Various Vasopressin Analogs, 4 h: Ca-influx in HUAEC, 50 nM per well; for Activity of Various Vasopressin Analogs, 1 h: 1 h pre-incubation in pooled human serum at 37° C.; for Activity of Various Vasopressin Analogs, 2 h: 2 h pre-incubation in pooled human serum at 37° C.; for Activity of Various Vasopressin Analogs, 4 h: 4 h pre-incubation in pooled human serum at 37° C.; for course of activity on incubation in human serum: in words
From the text: Ca-influx after vasopressin analog stimulation of human umbilical chord artery endothelial cells (HUAEC) was used to test the biological activity of the various vasopressin analogs. The material used were: 75 cm^2 tissue culture flasks, BD Bioscience, Bedford Mass. (catalogue number 137787) with 0.2 μm vented blue plug seal caps (catalogue number 353136); human umbilical artery endothelial cells (HUAEC), Lonza, Walkersville, Md. (catalogue number CC-2520); EGM-2 fully supplement medium, Lonza, Walkersville, Md. (catalogue number CC-3162); Fura-2 AM, Invitrogen/Molecular Probes, Carlsbad, Calif. (catalogue number F-1221) (Fura-2 AM is a high affinity, intracellular calcium indicator that is ratiometric and UV light-excitable; the acetoxymethyl (AM) ester form is useful for noninvasive intracellular loading as it is cell permeable. Once inside the cell the ester is clipped which renders the Fura-2 molecule cell impermeable and therefore trapped inside.); terlipressin derivatives custom made by Anaspec, San Jose Calif., according to inventors specifications; pooled human serum, Sigma, St. Louis, Mo. (catalogue number H4522); phosphate buffered saline (PBS), Fisher Scientific, Fair Lawn, N.J. (catalogue number BP399-500); trypsin-EDTA solution, 0.25%, Invitrogen/Gibco, Carlsbad, Calif. (catalogue number 25200-072); heat inactivated fetal bovine serum (FBS), Invitrogen/Gibco, Carlsbad, Calif. (catalogue number 10438-026); black polystyrene 96 well flat-bottom assay plates, Corning Inc., Corning, N.Y. (catalogue number 3916); Chameleon plate multilabel detection reader, Hidex, Turku, Finland, distributed by Bioscan, Washington, D.C.; dimethyl sulfoxide (DMSO), Fisher Scientific, Fair Lawn, N.J. (catalogue number D-136-1).
The methods used for tissue or cell culture are as follows: a vial of HUAEC (>0.5×10^6 cells) was thawed and seeded in two 75 cm^2 flasks with 15 ml EGM-2 medium each. Cells were grown over night and medium was changed. Media in the flasks were changed on a Monday, Wednesday, Friday schedule. Cells were split at approximately 80% confluency (using trypsin). Media were removed and the flasks were washed with 10 ml 1×PBS. The PBS was removed, 1.5 ml trypsin-EDTA solution was added and incubated for 5 min at 37° C. Three ml of FBS added and the cells were counted. The cells were centrifuged at 200×G for 5 min, resuspended in EGM-2 medium and distributed into new 75 cm2 flasks @ 3000-5000 cells per cm2.
To prepare for the Ca2+-influx assay, cells were distributed into one black 96 well plate @ 10^5 cells/well. Cells were allowed to adhere overnight and the medium was then removed. Fifty μg Fura-2 was dissolved in 50 μl DMSO and added to 10 ml PBS/2% FBS. The cells were stained with 20 μl of 5 μg/ml Fura-2 in PBS/2% FBS for 2 h, then 180 μl EGM-2 medium supplemented with CaCl2 and glucose was added (10 mM CaCl2 and 11.1 mM glucose final concentrations).
To prepare analogs for testing, 50 uM terlipressin (or derivative) stock solution in DMSO was prepared. […] (placed on ice after incubation).
To measure Ca-influx, Fura-2 fluorescence was measured for 4 repetitions per well at 340 nm ex/510 nm em and 420 nm ex/510 nm em (4 measurement before and 16 after injection of drug. At t=12 sec, 20 μl of terlipressin or derivative was injected as a 500 nM solution (or serum) for a final concentration of 50 nM per well. Fura-2 fluorescence was measured for […] per well at 340 nm ex/510 nm em and 420 nm ex/510 nm em (4 measurements before and 16 after injection of drug). The controls included injected human serum alone, and terlipressin or derivative dissolved in PBS as […]. All measurements were done in hexuplicate.
Data analysis was done using Graphpad Prism version 5.0 software (Graphpad software Inc, San Diego, Calif.). […]

Structure (SMILES) | solubility in water [1] | Activity of Various Vasopressin Analogs, 0 h [3] | Activity of Various Vasopressin Analogs, 1 h [3] | Activity of Various Vasopressin Analogs, 2 h [3] | Activity of Various Vasopressin Analogs, 4 h [3] | other results
NCCCC[C@H](NC(=O)[C@@H]1CCCN1C(=O)[C@@H]1CSSC[C@H](NC(=O)CNC(=O)CNC(=O)CNC(=O)[C@H](Cc2c[nH]cn2)NC(=O)[C@H](Cc2c[nH]cn2)NC(=O)[C@H](Cc2c[nH]cn2)NC(=O)[C@H](Cc2c[nH]cn2)NC(=O)[C@H](Cc2c[nH]cn2)NC(=O)[C@@H](N)Cc2c[nH]cn2)C(=O)N[C@@H](Cc2ccc(O)cc2)C(=O)N[C@@H](Cc2ccccc2)C(=O)N[C@@H](CCC(N)=O)C(=O)N[C@@H](CC(N)=O)C(=O)N1)C(=O)NCC(N)=O [His6Ter, His-His-His-His-His-His-Gly-Gly-Gly-Cys-Tyr-Phe-Gln-Asn-Cys-Pro-Lys-Gly-NH2] (H-HHHHHHGGGCYFQNCPKG-NH2; disulfide 10-15) | water soluble |  |  |  |  | loss of paleness after (rat ear model): 6 h
NC(=O)CC[C@@H]1NC(=O)[C@H](Cc2ccccc2)NC(=O)[C@H](Cc2ccc(O)cc2)NC(=O)[C@@H](N)CSSC[C@@H](C(=O)N2CCC[C@H]2C(=O)N[C@@H](CCCN=C(N)N)C(=O)NCC(N)=O)NC(=O)[C@H](CC(N)=O)NC1=O [vasopressin] |  |  |  |  |  | half-life [2]: 24 min
CCCCCCCCCCCC(=O)OC(C)C(=O)NCC(=O)NCC(=O)NCC(=O)N[C@H]1CSSC[C@@H](C(=O)N2CCC[C@H]2C(=O)N[C@@H](CCCCN)C(=O)NCC(N)=O)NC(=O)[C@H](CC(N)=O)NC(=O)[C@H](CCC(N)=O)NC(=O)[C@H](Cc2ccccc2)NC(=O)[C@H](Cc2ccc(O)cc2)NC1=O (stereo partly drawn) [C12TerE, CH3(CH2)10CO—OHC(CH3)CO-Gly-Gly-Gly-Cys-Tyr-Phe-Gln-Asn-Cys-Pro-Lys-Gly-NH2] (Lauroyl-[ξLac]GGGCYFQNCPKG-NH2; disulfide 5-10) | limited solubility in water | +++ | + | − | − | 
NCCCC[C@H](NC(=O)[C@@H]1CCCN1C(=O)[C@@H]1CSSC[C@H](NC(=O)CNC(=O)CNC(=O)CNC(=O)[C@H](Cc2c[nH]cn2)NC(=O)[C@H](Cc2c[nH]cn2)NC(=O)[C@@H](N)Cc2c[nH]cn2)C(=O)N[C@@H](Cc2ccc(O)cc2)C(=O)N[C@@H](Cc2ccccc2)C(=O)N[C@@H](CCC(N)=O)C(=O)N[C@@H](CC(N)=O)C(=O)N1)C(=O)NCC(N)=O [His3Ter, His-His-His-Gly-Gly-Gly-Cys-Tyr-Phe-Gln-Asn-Cys-Pro-Lys-Gly-NH2] (H-HHHGGGCYFQNCPKG-NH2; disulfide 7-12) | water soluble |  |  |  |  | 
NCCCC[C@H](NC(=O)[C@@H]1CCCN1C(=O)[C@@H]1CSSC[C@H](NC(=O)CNC(=O)CNC(=O)CN)C(=O)N[C@@H](Cc2ccc(O)cc2)C(=O)N[C@@H](Cc2ccccc2)C(=O)N[C@@H](CCC(N)=O)C(=O)N[C@@H](CC(N)=O)C(=O)N1)C(=O)NCC(N)=O [Terlipressin, reference compound] (H-GGGCYFQNCPKG-NH2; disulfide 4-9) |  | +++ | + | − | − | course of activity on incubation in human serum [3]: loses its activity quickly; course of activity on incubation in human serum ([3]; listed as terlipressin): losses activity immediately afterwards; ear colour at 6 h (rat ear model; subcutaneous injection into the back, 6 h): pale; ear colour at 24 h (rat ear model; subcutaneous injection into the back, 24 h): returned to a baseline color; loss of paleness after (rat ear model): 6 h
CCCCCCCC(=O)NCC(=O)NCC(=O)NCC(=O)N[C@H]1CSSC[C@@H](C(=O)N2CCC[C@H]2C(=O)N[C@@H](CCCCN)C(=O)NCC(N)=O)NC(=O)[C@H](CC(N)=O)NC(=O)[C@H](CCC(N)=O)NC(=O)[C@H](Cc2ccccc2)NC(=O)[C@H](Cc2ccc(O)cc2)NC1=O [C8TerA, CH3(CH2)6CO-Gly-Gly-Gly-Cys-Tyr-Phe-Gln-Asn-Cys-Pro-Lys-Gly-NH2] (Octanoyl-GGGCYFQNCPKG-NH2; disulfide 4-9) | water soluble | +++ | +++ | +++ | +++ | 
N=C(N)NCCC[C@H](NC(=O)[C@@H]1CCCN1C(=O)[C@@H]1CSSC[C@H](NC(=O)CNC(=O)CNC(=O)CNC(=O)[C@H](Cc2c[nH]cn2)NC(=O)[C@H](Cc2c[nH]cn2)NC(=O)[C@@H](N)Cc2c[nH]cn2)C(=O)N[C@@H](Cc2ccc(O)cc2)C(=O)N[C@@H](Cc2ccccc2)C(=O)N[C@@H](CCC(N)=O)C(=O)N[C@@H](CC(N)=O)C(=O)N1)C(=O)NCC(N)=O [His3Vas, His-His-His-Gly-Gly-Gly-Cys-Tyr-Phe-Gln-Asn-Cys-Pro-Arg-Gly-NH2] (H-HHHGGGCYFQNCPRG-NH2; disulfide 7-12) | water soluble |  |  |  |  | 
N=C(N)NCCC[C@H](NC(=O)[C@@H]1CCCN1C(=O)[C@@H]1CSSC[C@H](NC(=O)CNC(=O)CNC(=O)CNC(=O)[C@H](Cc2c[nH]cn2)NC(=O)[C@H](Cc2c[nH]cn2)NC(=O)[C@H](Cc2c[nH]cn2)NC(=O)[C@H](Cc2c[nH]cn2)NC(=O)[C@H](Cc2c[nH]cn2)NC(=O)[C@@H](N)Cc2c[nH]cn2)C(=O)N[C@@H](Cc2ccc(O)cc2)C(=O)N[C@@H](Cc2ccccc2)C(=O)N[C@@H](CCC(N)=O)C(=O)N[C@@H](CC(N)=O)C(=O)N1)C(=O)NCC(N)=O [His6Vas, His-His-His-His-His-His-Gly-Gly-Gly-Cys-Tyr-Phe-Gln-Asn-Cys-Pro-Arg-Gly-NH2] (H-HHHHHHGGGCYFQNCPRG-NH2; disulfide 10-15) | water soluble |  |  |  |  | 
CCCCCCCC(=O)OC(C)C(=O)NCC(=O)NCC(=O)NCC(=O)N[C@H]1CSSC[C@@H](C(=O)N2CCC[C@H]2C(=O)N[C@@H](CCCCN)C(=O)NCC(N)=O)NC(=O)[C@H](CC(N)=O)NC(=O)[C@H](CCC(N)=O)NC(=O)[C@H](Cc2ccccc2)NC(=O)[C@H](Cc2ccc(O)cc2)NC1=O (stereo partly drawn) [C8TerE, CH3(CH2)6CO—OHC(CH3)CO-Gly-Gly-Gly-Cys-Tyr-Phe-Gln-Asn-Cys-Pro-Lys-Gly-NH2] (Octanoyl-[ξLac]GGGCYFQNCPKG-NH2; disulfide 5-10) | water soluble |  |  |  |  | 
